According to US8507472B2 (priority 2010, dated 2013):
Read-outs that look alike come from different tables or passages of the source.

How the values were obtained:
Venturia inaequalis = assay: Venturia test (apple)/protective; type: in vivo; details: 100 ppm active compound, protective, evaluation 10 days after inoculation
Description: Solvents: 24.5 parts by weight of acetone • 24.5 parts by weight of dimethylacetamide Emulsifier: 1 part by weight of alkylaryl polyglycol ether
(§1) To produce a suitable preparation of active compound, 1 part by weight of active compound is mixed with the stated amounts of solvents and emulsifier, and the concentrate is diluted with water to the desired concentration.
(§2) To test for protective activity, young plants are sprayed with the active compound preparation at the stated application rate. After the spray coating has dried on, the plants are inoculated with an aqueous conidia suspension of the apple scab pathogen Venturia inaequalis and then remain in an incubation cabin at about 20° C. and 100% relative atmospheric humidity for 1 day.
(§3) The plants are then placed in a greenhouse at about 21° C. and a relative atmospheric humidity of about 90%.
(§4) Evaluation is carried out 10 days after the inoculation. 0% means an efficacy which corresponds to that of the control, whereas an efficacy of 100% means that no infection is observed.

Botrytis cinerea = assay: Botrytis test (bean)/protective; type: in vivo; details: 100 ppm active compound, protective, evaluation 2 days after inoculation
Description: (§5) Solvents: 24.5 parts by weight of acetone
(§6) • 24.5 parts by weight of dimethylacetamide Emulsifier: 1 part by weight of alkylaryl polyglycol ether
as §1
To test for protective activity, young plants are sprayed with the active compound preparation at the stated application rate. After the spray coating has dried on, 2 small pieces of agar colonized by Botrytis cinerea are placed onto each leaf. The inoculated plants are placed in a dark chamber at about 20° C. and 100% relative atmospheric humidity.
2 days after the inoculation, the size of the infected areas on the leaves is evaluated. 0% means an efficacy which corresponds to that of the control, whereas an efficacy of 100% means that no infection is observed.

Phytophthora infestans = type: in vivo
Leptosphaeria nodorum = Leptosphaeria nodorum test (wheat)/protective; type: in vivo
Description: (§7) Solvent: 49 parts by weight of N,N-dimethylformamide
(§8) Emulsifier: 1 part by weight of alkylaryl polyglycol ether
(§9) To produce a suitable preparation of active compounds, 1 part by weight of active compound is mixed with the stated amounts of solvent and emulsifier, and the concentrate is diluted with water to the desired concentration.
To test for protective activity, young wheat plants are sprayed with the active compound preparation at the stated application rate. 1 day after the treatment, the plants are inoculated with an aqueous spore suspension of Leptosphaeria nodorum and then remain at 100% rel. atmospheric humidity and 22° C. for 48 h. The plants are then placed in a greenhouse at 90% rel. atmospheric humidity and a temperature of 22° C.
Evaluation is carried out 7-9 days after the inoculation. 0% means an efficacy which corresponds to that of the control, whereas an efficacy of 100% means that no infection is observed.

Fusarium graminearum = assay: microbe, parasite or virus in culture; type: cell-based
[1] = log P determination by HPLC retention times (alkan-2-one calibration)
DON/AcDON production = assay: microbe, parasite or virus in culture; type: cell-based, Fusarium graminearum; details: 7 days at 28° C.
Pyrenophora teres = Pyrenophora teres test (barley)/protective; type: in vivo
Method in brief: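 Protective test: young barley plants sprayed at the stated rate with compound in DMF/alkylaryl polyglycol ether diluted with water, inoculated with P. teres spores 1 day later, kept 48 h at 100% rel. humidity and 22° C., then greenhouse at 80% and 20° C. Efficacy scored 7-9 days post-inoculation (0% = control, 100% = no infection).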

Alternaria solani = assay: Alternaria test (tomato)/protective; type: in vivo
Description: as §7, §8
To produce a suitable preparation of active compound, 1 part by weight of active compound is mixed with the stated amounts of solvent and emulsifier, and the concentrate is diluted with water to the desired concentration.
To test for protective activity, young tomato plants are sprayed with the active compound preparation at the stated application rate. 1 day after the treatment, the plants are inoculated with a spore suspension of Alternaria solani and then remain at 100% rel. humidity and 22° C. for 24 h. The plants then remain at 96% rel. atmospheric humidity and a temperature of 20° C.
(§10) Evaluation is carried out 7 days after the inoculation. 0% means an efficacy which corresponds to that of the control, whereas an efficacy of 100% means that no infection is observed.

Sphaerotheca fuliginea = assay: Sphaerotheca test (cucumber)/protective; type: in vivo
Description: as §7, §8, §9
To test for protective activity, young cucumber plants are sprayed with the active compound preparation at the stated application rate. 1 day after the treatment, the plants are inoculated with a spore suspension of Sphaerotheca fuliginea. The plants are then placed in a greenhouse at 70% rel. atmospheric humidity and a temperature of 23° C.
as §10

Uromyces appendiculatus = assay: Uromyces test (bean)/protective; type: in vivo; details: in vivo
Description: as §5, §6, §1
as §2, with “spore” for “conidia”, “bean rust” for “apple scab”, “Uromyces appendiculatus” for “Venturia inaequalis”
as §3, §4

[2] = 500 ppm active compound, tomato, protective, evaluation 7 days after inoculation

Q: For Fc1ccc(-c2nn3c(c2-c2ccncc2)CCCC3)cc1 [Example 2, 2-(4-Fluorophenyl)-3-(pyridin-4-yl)-4,5,6,7-tetrahydropyrazolo[1,5-a]pyridine], which efficacy in % (Venturia inaequalis) is on record?
A: 95%

Q: And the efficacy in % (Botrytis cinerea)?
A: 100%

Q: And the efficacy in % (Phytophthora infestans; [2])?
A: 94%

Q: And the efficacy in % (Leptosphaeria nodorum; 500 ppm active compound, wheat, protective, evaluation 7-9 days after inoculation)?
A: 80%

Q: And the inhibition at 50 µM (Fusarium graminearum; Fusarium graminearum, 72 h, read-out: % inhibition of the fungal growth of Fusarium graminearum at 50 μM)?
A: 99%

Q: What about the chromatographic logP ([1]; log P(HCOOH), HCOOH, preparation examples in the text) of the same compound?
A: 1.03

Q: What about the chromatographic logP ([1]; log P, values marked [a] in Table 1) of the same compound?
A: 1.03

Q: What about the chromatographic logP ([1]; log P, values marked [b] in Table 1) of the same compound?
A: 2.43

Q: What about the inhibition at 50 µM (DON/AcDON production; Fusarium graminearum, 168 h) of the same compound?
A: 100%

Q: What about the efficacy in % (Pyrenophora teres; 500 ppm active compound, barley, protective, evaluation 7-9 days after inoculation) of the same compound?
A: 95%

Q: What about the efficacy in % (Alternaria solani; [2]) of the same compound?
A: 94%

Q: What about the efficacy in % (Sphaerotheca fuliginea; 500 ppm active compound, cucumber, protective, evaluation 7 days after inoculation) of the same compound?
A: 91%

Q: What does the source list for Fc1ccc(-c2nn3c(c2-c2ccncc2)CCC3)cc1 [Example 7]?
A: efficacy in % (Venturia inaequalis): 76%; efficacy in % (Botrytis cinerea): 95%; efficacy in % (Phytophthora infestans; in vivo): 95%; % inhibition of the fungal growth of Fusarium graminearum at 50 μM (Fusarium graminearum): 100%; % inhibition of DON/AcDON at 50 μM (DON/AcDON production): 99%; efficacy in % (Pyrenophora teres; in vivo): 80%; efficacy in % (Alternaria solani; in vivo): 95%; efficacy in % (Sphaerotheca fuliginea; in vivo): 90%

Q: For c1ccc(-c2nn3c(c2-c2ccncc2)CCCC3)cc1 [Example 9], which efficacy in % (Venturia inaequalis) is on record?
A: 95%

Q: What about the efficacy in % (Botrytis cinerea) of the same compound?
A: 93%

Q: What about the efficacy in % (Phytophthora infestans; in vivo) of the same compound?
A: 90%

Q: And the efficacy in % (Leptosphaeria nodorum; in vivo)?
A: 95%

Q: And the “% inhibition of the fungal growth of Fusarium graminearum at 50 μM” value (Fusarium graminearum)?
A: 100%

Q: What about the “% inhibition of DON/AcDON at 50 μM” value (DON/AcDON production) of the same compound?
A: 99%

Q: And the efficacy in % (Pyrenophora teres; in vivo)?
A: 94%

Q: And the efficacy in % (Alternaria solani; in vivo)?
A: 100%

Q: And the efficacy in % (Sphaerotheca fuliginea; in vivo)?
A: 86%

Q: Which efficacy in % (Venturia inaequalis) does the source give for O=C(Cc1ccccc1)Nc1cc(-c2c(-c3ccccc3)nn3c2CCCC3)ccn1 [Example 35] here?
A: 95%

Q: What about the efficacy in % (Botrytis cinerea) of the same compound?
A: 96%

Q: And the efficacy in % (Phytophthora infestans; in vivo)?
A: 80%

Q: And the efficacy in % (Leptosphaeria nodorum; in vivo)?
A: 90%

Q: What about the efficacy in % (Pyrenophora teres; in vivo) of the same compound?
A: 78%

Q: What about the efficacy in % (Alternaria solani; in vivo) of the same compound?
A: 94%

Q: What does the source list for CC(C)Nc1cc(-c2c(-c3ccc(F)cc3)nn3c2CCC3)ccn1 [Example 52]?
A: efficacy in % (Venturia inaequalis): 94%; efficacy in % (Botrytis cinerea): 78%; efficacy in % (Phytophthora infestans; in vivo): 95%; % inhibition of the fungal growth of Fusarium graminearum at 50 μM (Fusarium graminearum): 19%; % inhibition of DON/AcDON at 50 μM (DON/AcDON production): 99%; efficacy in % (Pyrenophora teres; in vivo): 80%; efficacy in % (Alternaria solani; in vivo): 90%

Q: What does the source list for CC1CCc2c(-c3ccncc3)c(-c3ccc(F)cc3)nn21 (stereo not drawn) [Example 74]?
A: efficacy in % (Venturia inaequalis): 95%; efficacy in % (Botrytis cinerea): 100%; efficacy in % (Phytophthora infestans; in vivo): 90%; efficacy in % (Leptosphaeria nodorum; in vivo): 88%; efficacy in % (Pyrenophora teres; in vivo): 100%; efficacy in % (Alternaria solani; in vivo): 95%; efficacy in % (Sphaerotheca fuliginea; in vivo): 93%

Q: With CC1CCc2c(-c3ccnc(NC(=O)C4CC4)c3)c(-c3ccc(F)cc3)nn21 (stereo not drawn) [Example 78] as the compound, how does the efficacy in % (Venturia inaequalis) read?
A: 100%

Q: What about the efficacy in % (Uromyces appendiculatus) of the same compound?
A: 94%

Q: What about the efficacy in % (Botrytis cinerea) of the same compound?
A: 100%

Q: And the efficacy in % (Leptosphaeria nodorum; in vivo)?
A: 100%

Q: What about the efficacy in % (Pyrenophora teres; in vivo) of the same compound?
A: 95%

Q: And the efficacy in % (Sphaerotheca fuliginea; in vivo)?
A: 100%

Q: What does the source list for COC1CCCn2nc(-c3ccc(F)cc3)c(-c3ccncc3)c21 (stereo not drawn) [Example 85]?
A: efficacy in % (Uromyces appendiculatus): 85%; efficacy in % (Botrytis cinerea): 100%; efficacy in % (Phytophthora infestans; in vivo): 90%; efficacy in % (Leptosphaeria nodorum; in vivo): 75%; efficacy in % (Pyrenophora teres; in vivo): 100%; efficacy in % (Sphaerotheca fuliginea; in vivo): 85%

Q: Which efficacy in % (Venturia inaequalis) does the source give for CCC(=O)Nc1cc(-c2c(-c3ccc(F)cc3)nn3c2CCOC3(C)C)ccn1 [Example 86] here?
A: 95%

Q: What about the efficacy in % (Uromyces appendiculatus) of the same compound?
A: 95%

Q: What about the efficacy in % (Botrytis cinerea) of the same compound?
A: 100%

Q: What about the efficacy in % (Leptosphaeria nodorum; in vivo) of the same compound?
A: 70%

Q: What about the efficacy in % (Pyrenophora teres; in vivo) of the same compound?
A: 100%

Q: And the efficacy in % (Alternaria solani; in vivo)?
A: 90%

Q: And the efficacy in % (Sphaerotheca fuliginea; in vivo)?
A: 100%

Q: For CC(=O)Nc1cc(-c2c(-c3cccs3)nn3c2CCCC3)ccn1 [Example 87], which efficacy in % (Uromyces appendiculatus) is on record?
A: 93%

Q: What about the efficacy in % (Botrytis cinerea) of the same compound?
A: 100%

Q: What about the efficacy in % (Phytophthora infestans; in vivo) of the same compound?
A: 90%

Q: What about the efficacy in % (Leptosphaeria nodorum; in vivo) of the same compound?
A: 70%

Q: And the efficacy in % (Pyrenophora teres; in vivo)?
A: 90%

Q: And the efficacy in % (Alternaria solani; in vivo)?
A: 80%

Q: And the efficacy in % (Sphaerotheca fuliginea; in vivo)?
A: 95%

Q: With O=C(Nc1cc(-c2c(-c3cccs3)nn3c2CCCC3)ccn1)C1CC1 [Example 89] as the compound, how does the efficacy in % (Venturia inaequalis) read?
A: 94%

Q: And the efficacy in % (Uromyces appendiculatus)?
A: 95%

Q: And the efficacy in % (Botrytis cinerea)?
A: 100%

Q: And the efficacy in % (Phytophthora infestans; in vivo)?
A: 90%

Q: And the efficacy in % (Leptosphaeria nodorum; in vivo)?
A: 80%

Q: And the efficacy in % (Pyrenophora teres; in vivo)?
A: 95%

Q: What about the efficacy in % (Alternaria solani; in vivo) of the same compound?
A: 90%

Q: What about the efficacy in % (Sphaerotheca fuliginea; in vivo) of the same compound?
A: 100%

Q: Which efficacy in % (Venturia inaequalis) does the source give for CC(C)C(=O)Nc1cc(-c2c(-c3ccc(F)cc3)nn3c2CCOC3)ccn1 [Example 91] here?
A: 95%

Q: What about the efficacy in % (Uromyces appendiculatus) of the same compound?
A: 95%

Q: What about the efficacy in % (Botrytis cinerea) of the same compound?
A: 100%

Q: What about the efficacy in % (Leptosphaeria nodorum; in vivo) of the same compound?
A: 78%

Q: What about the efficacy in % (Pyrenophora teres; in vivo) of the same compound?
A: 95%

Q: And the efficacy in % (Alternaria solani; in vivo)?
A: 90%

Q: What about the efficacy in % (Sphaerotheca fuliginea; in vivo) of the same compound?
A: 100%
